≈ marks a conversion by molar mass, not a printed value.
Columns and labels:
[1] = target: JAK1 (Homo sapiens, UniProt P23458); test: experiment of inhibiting kinase activity (Caliper mobility shift assay), JAK1; type: biochemical; conditions: read-out: inhibition rate JAK1; for inhibition at 0.01 µM: at 10 nM
Outline: (§1)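 Inhibition is measured as reduced conversion of substrate by the kinase, separated by microfluidic mobility shift after a room-temperature reaction started with ATP/substrate following a 10-min compound preincubation. Test doses are 10 nM, 100 nM, or a 10-point 3-fold series from 10 µM.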

[2] = target: JAK2 (Homo sapiens, UniProt O60674); test: experiment of inhibiting kinase activity (Caliper mobility shift assay), JAK2; type: biochemical; conditions: read-out: inhibition rate JAK2; for inhibition at 0.01 µM: at 10 nM
Chain of JAK2 (O60674 whole entry): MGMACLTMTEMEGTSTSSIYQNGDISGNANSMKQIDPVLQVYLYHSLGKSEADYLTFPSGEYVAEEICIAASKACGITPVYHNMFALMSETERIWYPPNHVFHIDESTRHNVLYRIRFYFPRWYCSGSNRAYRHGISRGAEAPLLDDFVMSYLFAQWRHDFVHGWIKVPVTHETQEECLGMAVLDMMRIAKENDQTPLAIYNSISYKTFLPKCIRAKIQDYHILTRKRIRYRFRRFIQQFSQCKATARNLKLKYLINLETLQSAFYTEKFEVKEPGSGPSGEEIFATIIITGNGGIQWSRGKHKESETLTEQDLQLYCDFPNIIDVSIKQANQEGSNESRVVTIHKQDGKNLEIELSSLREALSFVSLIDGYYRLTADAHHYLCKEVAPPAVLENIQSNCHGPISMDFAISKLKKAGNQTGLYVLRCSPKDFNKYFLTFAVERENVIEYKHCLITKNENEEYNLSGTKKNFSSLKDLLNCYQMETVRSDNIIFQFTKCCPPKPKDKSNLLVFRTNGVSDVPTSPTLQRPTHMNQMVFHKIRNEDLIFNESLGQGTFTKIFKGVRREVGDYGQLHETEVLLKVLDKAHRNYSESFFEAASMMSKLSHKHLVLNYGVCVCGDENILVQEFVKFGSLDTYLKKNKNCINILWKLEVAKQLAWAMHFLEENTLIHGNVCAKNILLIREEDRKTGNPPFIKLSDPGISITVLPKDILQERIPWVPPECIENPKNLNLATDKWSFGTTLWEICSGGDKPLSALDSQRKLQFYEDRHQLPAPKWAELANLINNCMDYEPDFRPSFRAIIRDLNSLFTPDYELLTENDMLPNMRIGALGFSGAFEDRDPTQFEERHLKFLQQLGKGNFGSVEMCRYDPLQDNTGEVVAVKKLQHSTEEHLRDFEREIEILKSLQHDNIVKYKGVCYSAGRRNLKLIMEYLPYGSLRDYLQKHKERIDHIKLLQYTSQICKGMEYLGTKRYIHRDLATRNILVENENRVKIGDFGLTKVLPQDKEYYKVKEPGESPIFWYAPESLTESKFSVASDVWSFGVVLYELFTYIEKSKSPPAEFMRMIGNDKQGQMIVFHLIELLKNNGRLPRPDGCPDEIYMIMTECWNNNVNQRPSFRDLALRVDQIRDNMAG
Outline: as §1

[3] = target: T1, JAK3 (Homo sapiens, UniProt P52333); test: experiment of inhibiting kinase activity (Caliper mobility shift assay), JAK3; type: biochemical; conditions: at 100 nM; read-out: inhibition rate JAK3
T1 sequence (P52333 1-1124): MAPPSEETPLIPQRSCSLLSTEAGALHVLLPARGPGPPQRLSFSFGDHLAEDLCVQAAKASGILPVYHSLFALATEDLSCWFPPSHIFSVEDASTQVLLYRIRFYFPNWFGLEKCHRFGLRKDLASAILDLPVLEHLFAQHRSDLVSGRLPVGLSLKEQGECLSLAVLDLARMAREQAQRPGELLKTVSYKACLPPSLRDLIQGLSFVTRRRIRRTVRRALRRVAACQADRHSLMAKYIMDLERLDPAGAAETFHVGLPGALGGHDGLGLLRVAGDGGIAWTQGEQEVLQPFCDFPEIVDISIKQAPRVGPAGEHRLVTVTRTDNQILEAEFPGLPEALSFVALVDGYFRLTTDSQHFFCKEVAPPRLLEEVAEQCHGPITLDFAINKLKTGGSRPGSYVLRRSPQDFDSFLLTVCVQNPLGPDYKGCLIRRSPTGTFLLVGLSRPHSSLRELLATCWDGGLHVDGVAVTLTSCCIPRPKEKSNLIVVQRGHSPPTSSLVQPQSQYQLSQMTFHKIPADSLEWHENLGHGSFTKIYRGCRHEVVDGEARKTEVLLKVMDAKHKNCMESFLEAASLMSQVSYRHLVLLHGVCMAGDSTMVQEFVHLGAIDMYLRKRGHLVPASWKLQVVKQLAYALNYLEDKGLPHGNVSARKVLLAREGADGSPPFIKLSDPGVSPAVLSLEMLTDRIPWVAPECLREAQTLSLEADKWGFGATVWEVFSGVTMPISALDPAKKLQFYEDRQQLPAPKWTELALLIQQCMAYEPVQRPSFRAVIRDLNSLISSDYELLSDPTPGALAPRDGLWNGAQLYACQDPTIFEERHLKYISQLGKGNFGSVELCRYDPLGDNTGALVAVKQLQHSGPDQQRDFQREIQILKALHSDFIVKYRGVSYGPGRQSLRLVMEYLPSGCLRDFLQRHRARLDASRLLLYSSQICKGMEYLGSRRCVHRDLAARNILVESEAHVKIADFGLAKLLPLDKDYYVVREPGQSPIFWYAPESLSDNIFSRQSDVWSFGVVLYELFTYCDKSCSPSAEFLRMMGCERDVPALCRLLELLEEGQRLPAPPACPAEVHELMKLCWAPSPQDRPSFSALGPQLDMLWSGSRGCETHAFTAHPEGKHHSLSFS
Outline: as §1

[4] = target: TYK2 (Homo sapiens, UniProt P29597); test: experiment of inhibiting kinase activity, TYK2; type: biochemical; conditions: read-out: inhibition rate TYK2; for inhibition at 0.01 µM: at 10 nM
Chain of TYK2 (P29597 whole entry): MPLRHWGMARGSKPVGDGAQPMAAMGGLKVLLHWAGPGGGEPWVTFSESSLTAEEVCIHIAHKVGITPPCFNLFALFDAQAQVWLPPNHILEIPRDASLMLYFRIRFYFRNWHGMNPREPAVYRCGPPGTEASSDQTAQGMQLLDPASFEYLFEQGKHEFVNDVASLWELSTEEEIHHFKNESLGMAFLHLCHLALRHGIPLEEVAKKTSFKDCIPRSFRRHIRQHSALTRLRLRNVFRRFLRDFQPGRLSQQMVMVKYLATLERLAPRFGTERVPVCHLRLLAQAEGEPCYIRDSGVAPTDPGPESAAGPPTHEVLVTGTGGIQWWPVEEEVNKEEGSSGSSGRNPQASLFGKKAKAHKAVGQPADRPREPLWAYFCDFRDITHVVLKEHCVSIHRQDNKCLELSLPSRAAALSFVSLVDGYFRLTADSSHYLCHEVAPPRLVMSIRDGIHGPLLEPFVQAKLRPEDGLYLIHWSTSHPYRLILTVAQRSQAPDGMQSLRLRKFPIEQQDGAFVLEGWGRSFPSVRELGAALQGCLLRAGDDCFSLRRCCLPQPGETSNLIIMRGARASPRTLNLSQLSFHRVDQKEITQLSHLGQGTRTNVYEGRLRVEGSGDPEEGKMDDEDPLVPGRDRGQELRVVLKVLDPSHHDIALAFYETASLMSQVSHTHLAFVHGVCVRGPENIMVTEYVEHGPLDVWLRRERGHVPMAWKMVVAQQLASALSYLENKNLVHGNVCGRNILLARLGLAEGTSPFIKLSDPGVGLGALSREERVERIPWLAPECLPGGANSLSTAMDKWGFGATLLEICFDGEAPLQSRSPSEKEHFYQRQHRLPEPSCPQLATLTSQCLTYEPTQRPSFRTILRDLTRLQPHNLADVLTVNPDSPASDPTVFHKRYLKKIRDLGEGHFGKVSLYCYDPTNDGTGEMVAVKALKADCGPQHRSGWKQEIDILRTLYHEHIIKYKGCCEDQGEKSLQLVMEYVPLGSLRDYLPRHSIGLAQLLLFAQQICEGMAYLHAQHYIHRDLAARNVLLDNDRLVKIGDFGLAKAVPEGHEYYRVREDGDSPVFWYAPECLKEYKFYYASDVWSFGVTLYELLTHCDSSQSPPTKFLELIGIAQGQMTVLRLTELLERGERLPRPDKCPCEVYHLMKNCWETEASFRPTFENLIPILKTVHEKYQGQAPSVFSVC
Procedure: (§2) The inhibition rates of tested compounds on JAK1, JAK2, JAK3, TYK2, CDK7, CDK9, EGFR (T790M) and LRRK2 kinases were measured. The test concentrations of the compounds were 10 nM and 100 nM, and the detection was performed by replicate wells. Alternatively, compounds were 3-fold serial diluted from 10 µM for 10 concentrations in replicate wells.

[5] = target: CDK7 (Homo sapiens, UniProt P50613); test: experiment of inhibiting kinase activity (Caliper mobility shift assay), CDK7; type: biochemical; conditions: at 100 nM; read-out: inhibition rate CDK7
Outline: as §1

[6] = target: CDK9 (Homo sapiens, UniProt P50750); test: experiment of inhibiting kinase activity (Caliper mobility shift assay), CDK9; type: biochemical; conditions: for inhibition at 0.01 µM: at 10 nM; for IC50: kinase activity assay, Table 3
Chain of CDK9 (P50750 whole entry): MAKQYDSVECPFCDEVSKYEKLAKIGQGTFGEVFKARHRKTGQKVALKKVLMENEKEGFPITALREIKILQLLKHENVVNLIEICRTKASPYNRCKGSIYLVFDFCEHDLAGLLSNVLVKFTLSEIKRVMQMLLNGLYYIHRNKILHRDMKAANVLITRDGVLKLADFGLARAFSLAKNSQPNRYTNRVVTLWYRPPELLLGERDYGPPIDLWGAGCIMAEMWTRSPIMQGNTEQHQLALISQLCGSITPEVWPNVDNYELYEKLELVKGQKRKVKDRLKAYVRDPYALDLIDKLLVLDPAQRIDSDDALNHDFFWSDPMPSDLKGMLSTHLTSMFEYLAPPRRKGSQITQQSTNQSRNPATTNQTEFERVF
Chain of CDK9 (O60563 whole entry partner): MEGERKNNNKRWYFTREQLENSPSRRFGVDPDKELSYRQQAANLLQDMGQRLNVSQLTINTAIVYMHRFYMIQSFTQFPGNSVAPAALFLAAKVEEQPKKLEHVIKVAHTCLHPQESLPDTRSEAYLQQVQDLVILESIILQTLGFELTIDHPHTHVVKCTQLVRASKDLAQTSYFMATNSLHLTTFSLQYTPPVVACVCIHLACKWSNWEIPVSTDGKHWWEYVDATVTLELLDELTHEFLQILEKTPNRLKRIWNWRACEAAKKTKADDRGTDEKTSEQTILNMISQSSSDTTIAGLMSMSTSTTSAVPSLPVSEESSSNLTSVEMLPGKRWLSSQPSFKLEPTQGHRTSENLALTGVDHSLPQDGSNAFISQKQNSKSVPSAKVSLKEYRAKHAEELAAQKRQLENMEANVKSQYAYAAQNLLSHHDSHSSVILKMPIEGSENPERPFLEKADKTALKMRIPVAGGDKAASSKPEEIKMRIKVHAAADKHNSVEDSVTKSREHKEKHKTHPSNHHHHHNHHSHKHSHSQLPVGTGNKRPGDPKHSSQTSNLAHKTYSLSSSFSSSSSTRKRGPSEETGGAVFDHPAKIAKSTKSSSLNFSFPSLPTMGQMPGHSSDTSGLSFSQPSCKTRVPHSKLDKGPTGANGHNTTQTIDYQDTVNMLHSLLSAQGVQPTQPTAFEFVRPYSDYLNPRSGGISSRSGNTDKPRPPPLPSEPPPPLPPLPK
Outline: as §1

[7] = target: LRRK2 (Homo sapiens, UniProt Q5S007); test: experiment of inhibiting kinase activity, LRRK2; type: biochemical; conditions: for IC50: kinase activity assay, Table 3
Procedure: as §2

[8] = system: MV-4-11 cells; test: CDK9 cell activity test (Cell Titer-GLO cell growth inhibition), MV-4-11; type: cell-based; conditions: Homo sapiens, MV4-11, 72 hours
Procedure: In these experiments, the cell line MV-4-11 was cultured in IMDM culture solution (containing 100 U/mL penicillin and 0.1 g/L streptomycin), the cell line HCC1187 was cultured in RPMI-1640 culture solution (containing 100 U/mL penicillin and 0.1 g/L streptomycin) containing 10% fetal bovine serum, the cell line Mia Paca-2 was cultured in DMEM (containing 100 U/mL penicillin and 0.1 g/L streptomycin) containing 10% fetal bovine serum and 2.5% horse serum, and the cell line A375 was cultured in RPMI-1640 culture solution (containing 100 U/mL penicillin and 0.1 g/L streptomycin) containing 10% fetal bovine serum. All cells were cultured in a saturated humidity incubator with 37 °C and 5% CO2.
When MV-4-11 cells, HCC-1187 cells, Mia Paca-2 cells and A375 cells grew to 80% -90% confleuncy, they were digested with trypsin, resuspended, counted and diluted to a certain cell density with complete medium, and inoculated into 96-well plate at 100 µL/well. With complete medium as background control, they were cultured overnight in a saturated humidity incubator with 37°C and 5% CO2. The compound was diluted to 200-fold of the final concentration using DMSO, 3 µL of DMSO storage solution of the above compound was added to 197 µL of complete medium, 50 µL of compound diluted in medium was added to cells in each well, and cultivated in a saturated humidity incubator with 37°C and 5% CO2 for 72 hours. After 72 hours, the culture plate was placed at room temperature for equilibrium, and 40 µl of Cell Titer-GLO® reagent was added to each well. The cells were lysed by mixing evenly for 2 minutes using a shaker, incubated at room temperature for 60 minutes to stabilize the chemiluminescence signal, and the chemiluminescence was read by PE EnVision microtiter plate reader. The cell growth inhibition rate Inh%=(DMSO well - compound treatment well)/(DMSO well - background well)×100 was calculated, and the cell growth IC50 value was obtained by fitting with GraphPad Prism 5 .

[9] = target: T2, wild-type LRRK2 (Homo sapiens, UniProt Q5S007); test: detection of phosphorylated S935 in HEK293T overexpressing wild-type LRRK2; type: cell-based; conditions: pS935, HEK293T overexpressing wild-type LRRK2, 1.5 hours
T2 construct: pCMV-flag-WT LRRK2 (full-length); expressed in transfected cells; host or cells: HEK293T
Procedure: (§3) Detection of phosphorylated S935 in HEK293T Overexpressing full-length LRRK2 (G2019S) or wild-type LRRK2
(§4) HEK293T cells was inoculated into a 6-well plate and cultured overnight. The next day, they were transiently transfected with plasmid pcDNA5-FRT/TO-FLAG LRRK2 (G2019S, full-length) or pCMV-flag-WT LRRK2 (full-length) by using Superfect transfection reagent and cultured at 37°C and 5% CO2 for 20-24 hours. The next day, cells were collected, resuspended at a density of 0.48×10^6 cells/ml, and inoculated into a 384-well plate at 50 microliters/well. Compound or DMSO solutions (volume ratio of 0.5%) were added by Tecan, and cultured at 37°C and 5% CO2 for 1.5 hours. After 1.5 hours, the supernatant was discarded, 50 microliters of 8% PFA were added in each well to fix the cells, and the cells were incubated at room temperature for 1 hour. The plate was washed with EL406 plate washer for three times, with 115 microliters of PBST per well, and the culture plate was patted to dryness. The cells were blocked with 50 microliters/well of Licor Odyssey blocking solution (0.1% Tween 20) at room temperature for 1.5 hours. The blocking solution was discarded and the culture plate was patted to dryness. 20 microliters of primary antibody (1:1000(pS935), diluted with Licor Odyssey buffer (0.1% Tween20)) was added into each well, and incubated at 4 °C overnight. The next day, the first antibody was discarded and washing was performed with PBST for five times. 20 microliters of secondary antibody (diluted with Licor Odyssey buffer (0.1% Tween20) at 1:500 and stained with DNA at 1:2000) were added into each well, and incubated at room temperature for 1 hour. The second antibody was discarded, and washing was performed for three times with PBST. The fluorescence intensity was measured by LICOR Odyssey imager Scanner, and the data was analyzed.

[10] = target: T3, LRRK2 (G2019S) (Homo sapiens, UniProt Q5S007, G2019S); test: detection of phosphorylated S935 in HEK293T overexpressing full-length LRRK2 (G2019S); type: cell-based; conditions: pS935, HEK293T overexpressing LRRK2 (G2019S), 1.5 hours
T3 construct: pcDNA5-FRT/TO-FLAG LRRK2 (G2019S, full-length); expressed in transfected cells; host or cells: HEK293T
Procedure: as §3, §4

[11] = measurement of the solubility of compounds in water and diluted hydrochloric acid; type: physicochemical; conditions: thermodynamic from solid
Procedure: Example 117: measurement of the solubility of compounds in water and diluted hydrochloric acid
The compounds were dissolved in acetonitrile (LCMS pure) and prepared into standard samples having the concentration gradient of 1000 µg/mL, 500 µg/mL, 250 µg/mL, 125 µg/mL, 62.5 µg/mL, and 31.25 µg/mL.
About 1.0 mg of the powder of the compound to be tested was weighed and added to 0.3 mL of ultrapure water (pH-6), the resulting mixture was shaked thoroughly at room temperature overnight and centrifuged, and the supernatant was taken and diluted 10 times with acetonitrile. The sample was analyzed after mixing evenly.
153.8 µL of 6 M HCl was pipetted, 20 mL of water was added, and mixed evenly to prepare diluted hydrochloric acid solution A (pH-1.5). About 1.0 mg of the powder of the compound to be tested was weighed and added to 0.3 mL of diluted hydrochloric acid solution A, the resulting mixture was shaked thoroughly at room temperature for 1 hour and centrifuged, and the supernatant was taken and diluted 10 times with acetonitrile. The sample was analyzed after mixing evenly.
The standard sample and the sample to be tested were analyzed by Shimadzu LCMS-2020, where chromatographic column was Skim-psck GIST 5 µm C18 2.1*[…]; mobile phase A was water and mobile phase B was methanol; and flow rate was 0.3 mL/min. The gradient of B was as the following: 0 min: 10%; 0-1.0 min: 10%; 1.0-2.5 min: 95%; 3.0-4.0 min: 95%; 4.0-4.1 min: 10%; 4.1-6.0 min: 10%.
The relationship between the concentration and peak area of the standard sample was ploted into a standard curve, and the concentration of the sample to be tested was calibrated using this standard curve. Compound solubility = concentration of the sample to be tested × 10 [formula]

Chain of JAK1 (P23458 whole entry): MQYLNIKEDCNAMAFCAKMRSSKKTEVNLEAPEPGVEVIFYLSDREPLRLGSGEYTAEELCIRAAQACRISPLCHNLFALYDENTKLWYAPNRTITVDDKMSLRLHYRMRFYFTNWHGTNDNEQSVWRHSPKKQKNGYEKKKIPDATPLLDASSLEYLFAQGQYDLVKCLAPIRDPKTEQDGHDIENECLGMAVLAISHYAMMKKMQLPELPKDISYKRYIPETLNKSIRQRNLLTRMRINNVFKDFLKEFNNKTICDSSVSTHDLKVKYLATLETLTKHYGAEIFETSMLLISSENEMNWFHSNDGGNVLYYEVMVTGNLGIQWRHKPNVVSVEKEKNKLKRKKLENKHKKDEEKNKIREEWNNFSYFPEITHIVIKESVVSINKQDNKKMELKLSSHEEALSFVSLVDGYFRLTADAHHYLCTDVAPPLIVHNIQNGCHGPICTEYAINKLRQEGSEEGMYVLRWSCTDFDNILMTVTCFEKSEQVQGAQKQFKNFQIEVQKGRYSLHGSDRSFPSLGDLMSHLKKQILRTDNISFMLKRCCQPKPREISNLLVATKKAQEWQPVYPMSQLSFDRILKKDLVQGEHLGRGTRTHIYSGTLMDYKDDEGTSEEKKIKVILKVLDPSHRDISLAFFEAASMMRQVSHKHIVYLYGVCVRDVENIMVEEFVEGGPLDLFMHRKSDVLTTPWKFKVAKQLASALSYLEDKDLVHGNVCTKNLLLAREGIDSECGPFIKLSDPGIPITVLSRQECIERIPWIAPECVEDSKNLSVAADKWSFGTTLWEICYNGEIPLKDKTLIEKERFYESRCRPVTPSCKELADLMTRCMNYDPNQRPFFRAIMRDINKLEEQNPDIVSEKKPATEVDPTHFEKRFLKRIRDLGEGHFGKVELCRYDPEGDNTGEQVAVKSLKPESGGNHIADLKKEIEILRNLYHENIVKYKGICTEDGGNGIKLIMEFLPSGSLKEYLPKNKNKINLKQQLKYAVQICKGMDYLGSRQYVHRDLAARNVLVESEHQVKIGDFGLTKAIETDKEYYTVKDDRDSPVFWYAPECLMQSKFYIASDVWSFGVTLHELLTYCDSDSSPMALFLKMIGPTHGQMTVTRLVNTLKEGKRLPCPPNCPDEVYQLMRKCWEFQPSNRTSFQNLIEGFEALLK

SMILES: CN1CCOCCOc2ccc(Nc3ncc(F)c(-c4ccc(C(=O)NCC#N)cc4)n3)cc2OCC1 [Example 44, N-(cyanomethyl)-4-(5-fluoro-2-((7-methyl-2,3,6,7,8,9-hexahydro-5H-benzo[b] [1,4,7]trioxa[10]azacyclododecan-12-yl)amino)pyrimidin-4-yl)benzamide]
- inhibition at 0.01 µM [1]: 25 to 39%
- inhibition at 0.1 µM ([1]; at 100 nM): > 80%
- inhibition at 0.01 µM [2]: > 80%
- inhibition at 0.1 µM ([2]; at 100 nM): > 80%
- inhibition at 0.1 µM [3]: 40 to 79%
- inhibition at 0.01 µM [4]: 40 to 79%
- inhibition at 0.1 µM ([4]; at 100 nM): > 80%
- inhibition at 0.1 µM [5]: 40 to 79%
- inhibition at 0.01 µM ([6]; read-out: inhibition rate CDK9): 40 to 79%
- inhibition at 0.1 µM ([6]; at 100 nM, read-out: inhibition rate CDK9): > 80%
- IC50 [6]: < 50 nM
- inhibition at 0.1 µM ([7]; at 100 nM, read-out: inhibition rate LRRK2): 40 to 79%
- IC50 [8]: < 100 nM

SMILES: CN1CCOc2ccc(Nc3ncc(C(F)(F)F)c(Nc4ccccc4P(C)(C)=O)n3)cc2OCC1 [Example 83, dimethyl(2-((2-((4-methyl-3,4,5,6-tetrahydro-2H-benzo[b][1,4,7]dioxazolin-9-yl)amino)-5-(trifluoromethyl)pyrimidin-4-yl)amino)phenyl)phosphine oxide]
- inhibition at 0.01 µM [1]: 25 to 39%
- inhibition at 0.01 µM [2]: > 80%
- inhibition at 0.01 µM [4]: 40 to 79%
- inhibition at 0.01 µM ([7]; at 10 nM, read-out: inhibition rate LRRK2): > 80%
- IC50 [7]: < 50 nM
- EC50 [9]: < 500 nM
- EC50 [10]: < 500 nM

SMILES: CN1CCOCCOc2ccc(Nc3nc(O[C@H]4CC[C@@](C)(O)CC4)c4cc[nH]c4n3)cc2OCC1 [Example 6, 1-methyl-4-((2-((7-methyl-2,3,6,7,8,9-hexahydro-5H-benzo[b][1,4,7]trioxa[10]azacyclododecan-12-yl)amino)-7H-pyrrolo[2,3-d]pyrimidin-4-yl)oxy)cyclohexanol]
- solubility at 1 h ([11]; simulated gastric fluid, diluted hydrochloric acid solution A (pH-1.5), room temperature, 1 hour): > 3070 µg/mL
- solubility ([11]; ultrapure water (pH-6), room temperature overnight): 368 µg/mL (≈ 740 µM)
- IC50 [7]: < 50 nM
- EC50 [9]: < 500 nM
- EC50 [10]: < 500 nM

SMILES: COc1ccc(F)cc1-c1nc(Nc2ccc3c(c2)OCCN(C)CCOCCO3)ncc1F [Example 114, N-(5-fluoro-4-(5-fluoro-2-methoxyphenyl)pyrimidin-2-yl)-7-methyl-2,3,6,7,8,9-hexahydro-5H-benzo[b][1,4,7]trioxa[10]azacyclododecan-12-amine]
- inhibition at 0.01 µM ([6]; read-out: inhibition rate CDK9): 40 to 79%
- IC50 [6]: < 50 nM
- IC50 [8]: 100 to 1000 nM

From patent EP4592286A1, “MACROCYCLIC NITROGEN-CONTAINING CROWN ETHER COMPOUND AND USE THEREOF AS PROTEIN KINASE INHIBITOR” (Artivila Biopharma, priority 2022, dated 2024)
